Source: publication PMC11302339, “A series of pyrimidine-based antifungals with anti-mold activity disrupt ER function in Aspergillus fumigatus” (Microbiology Spectrum, 2024)
In brackets after ≈: the same amount, converted by molar mass. Like-named read-outs stand apart in the source and are kept apart here.

Experiments:
A. fumigatus = experiment: MIC testing (CLSI broth dilution); assay type: cell-based; conditions: Aspergillus fumigatus
Description: (§1) MICs were determined using Clinical and Laboratory Standards Institute guidelines ([48], [49]). All yeasts were cultured overnight in 3 mL YPD at 30°C, then washed twice in sterile phosphate-buffered saline (PBS). Twofold serial dilutions of each drug were prepared in RMPI + MOPS, then 1 × 10^3 cells were added per well. For mold species, wells were inoculated with 1.25 × 10^3 conidia per well. Plates were incubated at 37°C for 24 (Candida spp. and S. cerevisiae), 48 (Aspergillus spp., M. circinelloides, S. apiospermum, and L. prolificans), or 72 (C. neoformans and F. oxysporum) hours. S. cerevisiae BY4743 MICs were tested in YPD due to nutritional requirements of this strain. Each assay was performed in technical duplicate in at least two independent experiments performed on different days.

C. glabrata = experiment: MIC testing (CLSI broth dilution); assay type: cell-based; conditions: Nakaseomyces glabratus; strain KK2001; CLSI conditions
Description: as §1

C. neoformans [1] = experiment: MIC testing (CLSI broth dilution); assay type: cell-based; conditions: Cryptococcus neoformans
Description: as §1

F. oxysporum = experiment: MIC testing (CLSI broth dilution); assay type: cell-based; conditions: Fusarium oxysporum; strain DUMC Fo, clinical isolate; CLSI conditions, 72 h
Description: as §1

L. prolificans = experiment: MIC testing (CLSI broth dilution); assay type: cell-based; conditions: Lomentospora prolificans; strain 90853; CLSI conditions
Description: as §1

M. circinelloides = experiment: MIC testing (CLSI broth dilution); assay type: cell-based; conditions: Mucor circinelloides; strain CBS277.49; CLSI conditions
Description: as §1

S. apiospermum = experiment: MIC testing (CLSI broth dilution); assay type: cell-based; conditions: Scedosporium apiospermum; strain MYA3635 (lab reference strain); CLSI conditions
Description: as §1

C. neoformans [2] = experiment: C. neoformans time kill assay; assay type: cell-based, Cryptococcus neoformans
Description: Overnight cultures of H99 were enumerated and diluted 1 × 10^5 CFU/mL in YPD with 4 µg/mL 1, 8 µg/mL 1, or DMSO. Cultures were incubated at 37°C with shaking for 30 hours with sampling at t = 0, 2, 4, 6, 8, 24, and 30 hours, then 10-fold serial dilutions of each sample were prepared and spotted on YPD. Viable colonies were enumerated after 48 hours at 30°C. Data are representative of two independent experiments performed in biological triplicate with technical duplicates.

[3] = Protein binding analysis, brain; assay type: in vitro ADME
[4] = Mouse microsome stability; assay type: in vitro ADME; conditions: mouse microsomes, 0.5 mg/mL microsomes, NADPH cofactors, 37°C
Description: 1 (2 mM in DMSO) was incubated at 37°C with 0.5 mg/mL mouse microsomes (lot # 2110330) fraction and Phase I (NADPH regenerating system) cofactors for 0–120 min at a final concentration of 2 µM. Reactions were quenched with 0.5 mL (1:1) of methanol containing formic acid (FA) 0.2% and 100 ng/mL n-benzylbenzamide internal standard (IS; 0.1% FA and 50ng/mL IS final). Samples were vortexed for 30 s, incubated at room temperature for 10 min, and spun for 5 min at 2,200 rpm in a tabletop centrifuge. Supernatant (~0.9 mL) was then transferred to an Eppendorf tube and spun in a 4°C microfuge for 5 min at 13,200 rpm. Supernatant was transferred to an high-performance liquid chromatography plate with seal and samples then analyzed by a 4500 LC-MS/MS.

OC1CC(c2cc(N3CCC(CCc4ccccc4)CC3)ncn2)C1 (stereo not drawn) [compound 1]
MIC (A. fumigatus; 48 h, strain CEA10, CLSI conditions, 48 h, read-out: MIC): 16 µg/mL (≈ 47.4 µM)
MIC (A. fumigatus; ATCC13073, strain ATCC13073, CLSI conditions, read-out: MIC): 8 µg/mL (≈ 23.7 µM)
MIC (A. fumigatus; strain AF293, CLSI conditions, read-out: MIC): 16 µg/mL (≈ 47.4 µM)
MIC (A. fumigatus; strain S001, clinical isolate, CLSI conditions, read-out: MIC): 8 µg/mL (≈ 23.7 µM)
MIC (A. fumigatus; strain S003, clinical isolate, CLSI conditions, read-out: MIC): 4 µg/mL (≈ 11.9 µM)
MIC (A. fumigatus; strain SPF93 (voriconazole-susceptible parent), CLSI conditions, read-out: MIC): 8 µg/mL (≈ 23.7 µM)
MIC (A. fumigatus; strain SPF98, drug-resistant isolate (cyp51A TR34 L98H), CLSI conditions): 8 µg/mL (≈ 23.7 µM)
MIC (A. fumigatus; A. fumigatus reference strains and clinical isolates, read-out: MIC): 8 to 16 µg/mL (≈ 23.7 to 47.4 µM)
MIC (C. glabrata): 64 µg/mL (≈ 190 µM)
MIC (C. neoformans [1]; 72 h, strain H99, CLSI conditions): 1 µg/mL (≈ 2.96 µM)
MIC (C. neoformans [1]; strain DUMC118, clinical isolate, CLSI conditions): 2 µg/mL (≈ 5.93 µM)
MIC (C. neoformans [1]; strain DUMC138, clinical isolate, CLSI conditions): 1 µg/mL (≈ 2.96 µM)
MIC (C. neoformans [1]; strain JEC21, CLSI conditions): 2 µg/mL (≈ 5.93 µM)
MIC (C. neoformans [1]; strain not named): 2 µg/mL (≈ 5.93 µM)
MIC (F. oxysporum): > 64 µg/mL
MIC (L. prolificans): 8 µg/mL (≈ 23.7 µM)
MIC (M. circinelloides): 16 µg/mL (≈ 47.4 µM)
MIC (S. apiospermum): 2 µg/mL (≈ 5.93 µM)
propidium iodide staining of C. neoformans vs vehicle (C. neoformans [2]; 8 µg/mL, 24 hours post treatment (Fig. S1)): did not observe changes in propidium iodide
type of activity (time kill) (C. neoformans [2]; 2× (4 µg/mL) or 4× (8 µg/mL) MIC over 30 hours): fungistatic
viable CFUs vs vehicle-treated controls (C. neoformans [2]; 4 or 8 µg/mL, 8, 24 and 30 hours post-treatment): significantly reduced
fraction unbound at 6 h, 5 µM ([3]; read-out: Corrected % Protein binding (converted)): 0.0112
fraction unbound ([3]; uncorrected): 0.1
half-life at 2 µM [4]: 1.25 h
